The source made the active and inactive calls. Cut-off read from the data, not from the text of the source, for most assays here: actives have a measured Kd and inactives only a lower limit.
target: Cyclin-dependent kinase 7 (Homo sapiens, UniProt P50613)
Note: in the data inactive means no Kd found up to 30 µM.

Sequence of Cyclin-dependent kinase 7 (P50613 whole entry): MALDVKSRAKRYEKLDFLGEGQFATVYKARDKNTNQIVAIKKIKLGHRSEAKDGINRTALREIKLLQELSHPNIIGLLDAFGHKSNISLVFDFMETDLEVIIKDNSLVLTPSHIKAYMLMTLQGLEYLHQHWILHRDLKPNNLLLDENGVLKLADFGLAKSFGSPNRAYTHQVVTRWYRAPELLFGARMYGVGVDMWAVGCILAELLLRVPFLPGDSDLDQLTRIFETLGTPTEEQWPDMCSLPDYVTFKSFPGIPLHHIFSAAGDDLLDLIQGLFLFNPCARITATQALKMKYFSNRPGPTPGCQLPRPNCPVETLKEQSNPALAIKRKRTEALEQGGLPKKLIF

| Compound | Kd |
| --- | --- |
| CN1N=C(N)c2cn([C@@H]3O[C@H](COP(=O)(O)O)[C@@H](O)[C@H]3O)c3ncnc1c23 [TRICIRIBINE PHOSPHATE] | > 30 µM (inactive) |
| CC(C)Nc1cc(-c2c[nH]c(C(=O)N[C@H](CO)c3cccc(Cl)c3)c2)c(Cl)cn1 [ULIXERTINIB] | > 30 µM (inactive) |
| CCCS(=O)(=O)Nc1ccc(F)c(C(=O)c2c[nH]c3ncc(-c4ccc(Cl)cc4)cc23)c1F [VEMURAFENIB] | > 30 µM (inactive) |

target: T1, Serine/threonine-protein kinase D3 (Homo sapiens, UniProt O94806)
T1 sequence (O94806 whole entry): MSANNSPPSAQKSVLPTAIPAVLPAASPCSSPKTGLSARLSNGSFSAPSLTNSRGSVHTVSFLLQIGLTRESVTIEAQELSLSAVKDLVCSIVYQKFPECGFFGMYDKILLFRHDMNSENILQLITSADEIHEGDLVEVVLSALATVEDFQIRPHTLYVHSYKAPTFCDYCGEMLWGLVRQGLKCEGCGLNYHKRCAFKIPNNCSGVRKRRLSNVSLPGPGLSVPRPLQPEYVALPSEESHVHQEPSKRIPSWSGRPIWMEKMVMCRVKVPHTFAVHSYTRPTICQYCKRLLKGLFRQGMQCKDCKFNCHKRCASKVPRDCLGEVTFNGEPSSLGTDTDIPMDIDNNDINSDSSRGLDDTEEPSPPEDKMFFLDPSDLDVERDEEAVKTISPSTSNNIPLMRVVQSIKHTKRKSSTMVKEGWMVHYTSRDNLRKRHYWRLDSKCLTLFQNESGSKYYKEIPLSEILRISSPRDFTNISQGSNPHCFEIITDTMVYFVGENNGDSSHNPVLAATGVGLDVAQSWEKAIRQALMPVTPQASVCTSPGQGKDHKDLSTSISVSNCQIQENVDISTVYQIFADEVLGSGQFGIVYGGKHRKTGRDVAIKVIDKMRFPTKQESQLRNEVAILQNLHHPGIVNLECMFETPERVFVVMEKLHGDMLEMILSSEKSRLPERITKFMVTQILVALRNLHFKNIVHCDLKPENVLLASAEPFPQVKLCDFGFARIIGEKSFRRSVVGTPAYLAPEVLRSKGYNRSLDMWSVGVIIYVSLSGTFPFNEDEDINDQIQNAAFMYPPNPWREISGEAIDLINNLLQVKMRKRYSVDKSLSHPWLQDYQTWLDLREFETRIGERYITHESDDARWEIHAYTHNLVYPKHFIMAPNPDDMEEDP

| Compound | Kd |
| --- | --- |
| CN1N=C(N)c2cn([C@@H]3O[C@H](COP(=O)(O)O)[C@@H](O)[C@H]3O)c3ncnc1c23 [TRICIRIBINE PHOSPHATE] | > 30 µM (inactive) |
| CC(C)Nc1cc(-c2c[nH]c(C(=O)N[C@H](CO)c3cccc(Cl)c3)c2)c(Cl)cn1 [ULIXERTINIB] | > 30 µM (inactive) |
| CCCS(=O)(=O)Nc1ccc(F)c(C(=O)c2c[nH]c3ncc(-c4ccc(Cl)cc4)cc23)c1F [VEMURAFENIB] | > 30 µM (inactive) |

target: Serine/threonine-protein kinase SIK3 (Homo sapiens, UniProt Q9Y2K2)

| Compound | Kd |
| --- | --- |
| CN1N=C(N)c2cn([C@@H]3O[C@H](COP(=O)(O)O)[C@@H](O)[C@H]3O)c3ncnc1c23 [TRICIRIBINE PHOSPHATE] | > 30 µM (inactive) |
| CC(C)Nc1cc(-c2c[nH]c(C(=O)N[C@H](CO)c3cccc(Cl)c3)c2)c(Cl)cn1 [ULIXERTINIB] | > 30 µM (inactive) |
| CCCS(=O)(=O)Nc1ccc(F)c(C(=O)c2c[nH]c3ncc(-c4ccc(Cl)cc4)cc23)c1F [VEMURAFENIB] | > 30 µM (inactive) |

target: T2, Calcium/calmodulin-dependent protein kinase type IV (Homo sapiens, UniProt Q16566)
T2 sequence (Q16566 whole entry): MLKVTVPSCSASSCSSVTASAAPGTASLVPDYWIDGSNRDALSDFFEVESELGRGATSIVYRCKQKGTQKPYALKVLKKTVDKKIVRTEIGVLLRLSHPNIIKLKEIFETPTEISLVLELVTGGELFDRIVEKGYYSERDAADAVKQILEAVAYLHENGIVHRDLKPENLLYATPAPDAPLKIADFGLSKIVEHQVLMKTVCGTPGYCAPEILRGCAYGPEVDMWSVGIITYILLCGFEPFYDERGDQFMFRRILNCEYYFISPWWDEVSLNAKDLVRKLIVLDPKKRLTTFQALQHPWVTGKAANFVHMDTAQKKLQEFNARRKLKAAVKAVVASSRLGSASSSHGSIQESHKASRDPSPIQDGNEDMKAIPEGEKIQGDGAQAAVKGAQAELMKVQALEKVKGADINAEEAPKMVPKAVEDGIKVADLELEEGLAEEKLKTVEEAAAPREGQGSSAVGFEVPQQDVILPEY

| Compound | Kd |
| --- | --- |
| CN1N=C(N)c2cn([C@@H]3O[C@H](COP(=O)(O)O)[C@@H](O)[C@H]3O)c3ncnc1c23 [TRICIRIBINE PHOSPHATE] | > 30 µM (inactive) |
| CC(C)Nc1cc(-c2c[nH]c(C(=O)N[C@H](CO)c3cccc(Cl)c3)c2)c(Cl)cn1 [ULIXERTINIB] | > 30 µM (inactive) |
| CCCS(=O)(=O)Nc1ccc(F)c(C(=O)c2c[nH]c3ncc(-c4ccc(Cl)cc4)cc23)c1F [VEMURAFENIB] | > 30 µM (inactive) |

target: Insulin receptor (Homo sapiens, UniProt P06213)
Sequence (P06213 28-758 limits assumed): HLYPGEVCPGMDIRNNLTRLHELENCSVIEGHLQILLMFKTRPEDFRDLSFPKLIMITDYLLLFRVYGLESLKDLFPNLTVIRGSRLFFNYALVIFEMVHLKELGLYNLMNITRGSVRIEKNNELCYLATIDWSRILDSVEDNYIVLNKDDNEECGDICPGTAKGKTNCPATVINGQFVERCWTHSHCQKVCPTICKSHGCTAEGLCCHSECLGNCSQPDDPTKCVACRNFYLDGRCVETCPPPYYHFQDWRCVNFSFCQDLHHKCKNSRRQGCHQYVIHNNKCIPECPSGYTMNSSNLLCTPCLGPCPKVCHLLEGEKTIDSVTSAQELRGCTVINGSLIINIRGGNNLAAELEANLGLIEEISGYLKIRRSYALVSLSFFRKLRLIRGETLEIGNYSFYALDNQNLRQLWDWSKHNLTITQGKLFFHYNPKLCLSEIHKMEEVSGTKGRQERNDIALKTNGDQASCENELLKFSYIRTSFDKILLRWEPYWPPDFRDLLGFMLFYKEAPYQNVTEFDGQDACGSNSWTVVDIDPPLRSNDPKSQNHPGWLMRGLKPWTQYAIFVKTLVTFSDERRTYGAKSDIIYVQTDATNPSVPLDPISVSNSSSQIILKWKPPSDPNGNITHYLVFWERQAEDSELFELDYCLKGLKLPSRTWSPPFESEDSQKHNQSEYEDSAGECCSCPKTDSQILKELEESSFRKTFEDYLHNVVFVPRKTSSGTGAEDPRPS
Sequence (P06213 763-1382 limits assumed): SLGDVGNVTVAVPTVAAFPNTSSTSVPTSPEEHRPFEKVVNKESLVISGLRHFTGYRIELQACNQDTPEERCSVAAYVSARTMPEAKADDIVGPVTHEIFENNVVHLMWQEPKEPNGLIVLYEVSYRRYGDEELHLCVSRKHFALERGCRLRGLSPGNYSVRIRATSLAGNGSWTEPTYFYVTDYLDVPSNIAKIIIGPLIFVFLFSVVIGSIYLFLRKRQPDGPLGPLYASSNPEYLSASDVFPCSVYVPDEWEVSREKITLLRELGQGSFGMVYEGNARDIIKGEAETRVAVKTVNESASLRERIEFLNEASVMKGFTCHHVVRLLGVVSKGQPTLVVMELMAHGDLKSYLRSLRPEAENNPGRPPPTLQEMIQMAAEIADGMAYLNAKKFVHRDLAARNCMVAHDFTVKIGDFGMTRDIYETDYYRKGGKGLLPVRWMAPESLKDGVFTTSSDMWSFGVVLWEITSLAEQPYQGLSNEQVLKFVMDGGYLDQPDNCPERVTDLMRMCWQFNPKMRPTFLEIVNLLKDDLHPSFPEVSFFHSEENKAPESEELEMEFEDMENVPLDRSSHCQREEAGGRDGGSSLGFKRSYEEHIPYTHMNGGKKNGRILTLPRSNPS

| Compound | Kd |
| --- | --- |
| CN1N=C(N)c2cn([C@@H]3O[C@H](COP(=O)(O)O)[C@@H](O)[C@H]3O)c3ncnc1c23 [TRICIRIBINE PHOSPHATE] | > 30 µM (inactive) |
| CC(C)Nc1cc(-c2c[nH]c(C(=O)N[C@H](CO)c3cccc(Cl)c3)c2)c(Cl)cn1 [ULIXERTINIB] | > 30 µM (inactive) |
| CCCS(=O)(=O)Nc1ccc(F)c(C(=O)c2c[nH]c3ncc(-c4ccc(Cl)cc4)cc23)c1F [VEMURAFENIB] | > 30 µM (inactive) |

target: Aurora kinase B (Homo sapiens, UniProt Q96GD4)
Sequence (Q96GD4 whole entry): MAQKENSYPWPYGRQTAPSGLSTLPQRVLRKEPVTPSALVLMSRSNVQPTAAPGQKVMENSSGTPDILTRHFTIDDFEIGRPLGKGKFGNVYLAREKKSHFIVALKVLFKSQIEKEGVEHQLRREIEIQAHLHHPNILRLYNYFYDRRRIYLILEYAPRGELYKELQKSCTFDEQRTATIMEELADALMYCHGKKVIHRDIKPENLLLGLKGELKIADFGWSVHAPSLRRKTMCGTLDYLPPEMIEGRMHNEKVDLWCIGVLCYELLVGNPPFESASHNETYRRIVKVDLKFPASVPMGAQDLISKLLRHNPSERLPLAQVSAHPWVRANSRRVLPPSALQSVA

| Compound | Kd |
| --- | --- |
| CN1N=C(N)c2cn([C@@H]3O[C@H](COP(=O)(O)O)[C@@H](O)[C@H]3O)c3ncnc1c23 [TRICIRIBINE PHOSPHATE] | > 30 µM (inactive) |
| CC(C)Nc1cc(-c2c[nH]c(C(=O)N[C@H](CO)c3cccc(Cl)c3)c2)c(Cl)cn1 [ULIXERTINIB] | > 30 µM (inactive) |
| CCCS(=O)(=O)Nc1ccc(F)c(C(=O)c2c[nH]c3ncc(-c4ccc(Cl)cc4)cc23)c1F [VEMURAFENIB] | > 30 µM (inactive) |

target: Ribosomal protein S6 kinase alpha-1 (Homo sapiens, UniProt Q15418)
Sequence (Q15418 whole entry): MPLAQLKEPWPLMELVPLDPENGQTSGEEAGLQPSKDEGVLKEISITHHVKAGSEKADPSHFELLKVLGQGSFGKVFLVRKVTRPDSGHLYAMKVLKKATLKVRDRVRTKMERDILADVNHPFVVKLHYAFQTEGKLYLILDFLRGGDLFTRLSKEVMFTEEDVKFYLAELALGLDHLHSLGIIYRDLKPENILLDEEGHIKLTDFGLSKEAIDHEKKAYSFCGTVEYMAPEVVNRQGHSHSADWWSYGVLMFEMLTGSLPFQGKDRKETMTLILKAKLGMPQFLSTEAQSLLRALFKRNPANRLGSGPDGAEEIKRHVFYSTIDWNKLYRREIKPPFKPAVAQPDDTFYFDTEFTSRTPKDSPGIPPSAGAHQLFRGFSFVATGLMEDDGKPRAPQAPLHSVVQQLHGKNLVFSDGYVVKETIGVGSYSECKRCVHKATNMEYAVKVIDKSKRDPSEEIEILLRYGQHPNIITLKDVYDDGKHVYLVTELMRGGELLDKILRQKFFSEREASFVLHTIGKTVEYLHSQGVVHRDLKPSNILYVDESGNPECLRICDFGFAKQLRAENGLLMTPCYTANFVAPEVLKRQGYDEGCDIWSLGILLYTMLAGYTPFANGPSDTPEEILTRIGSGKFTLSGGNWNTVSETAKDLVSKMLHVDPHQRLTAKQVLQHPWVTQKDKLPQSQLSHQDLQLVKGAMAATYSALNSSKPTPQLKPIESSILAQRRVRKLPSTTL

| Compound | Kd |
| --- | --- |
| CN1N=C(N)c2cn([C@@H]3O[C@H](COP(=O)(O)O)[C@@H](O)[C@H]3O)c3ncnc1c23 [TRICIRIBINE PHOSPHATE] | > 30 µM (inactive) |
| CC(C)Nc1cc(-c2c[nH]c(C(=O)N[C@H](CO)c3cccc(Cl)c3)c2)c(Cl)cn1 [ULIXERTINIB] | > 30 µM (inactive) |
| CCCS(=O)(=O)Nc1ccc(F)c(C(=O)c2c[nH]c3ncc(-c4ccc(Cl)cc4)cc23)c1F [VEMURAFENIB] | > 30 µM (inactive) |

target: Serine/threonine-protein kinase 10 (Homo sapiens, UniProt O94804)
Sequence (O94804 whole entry): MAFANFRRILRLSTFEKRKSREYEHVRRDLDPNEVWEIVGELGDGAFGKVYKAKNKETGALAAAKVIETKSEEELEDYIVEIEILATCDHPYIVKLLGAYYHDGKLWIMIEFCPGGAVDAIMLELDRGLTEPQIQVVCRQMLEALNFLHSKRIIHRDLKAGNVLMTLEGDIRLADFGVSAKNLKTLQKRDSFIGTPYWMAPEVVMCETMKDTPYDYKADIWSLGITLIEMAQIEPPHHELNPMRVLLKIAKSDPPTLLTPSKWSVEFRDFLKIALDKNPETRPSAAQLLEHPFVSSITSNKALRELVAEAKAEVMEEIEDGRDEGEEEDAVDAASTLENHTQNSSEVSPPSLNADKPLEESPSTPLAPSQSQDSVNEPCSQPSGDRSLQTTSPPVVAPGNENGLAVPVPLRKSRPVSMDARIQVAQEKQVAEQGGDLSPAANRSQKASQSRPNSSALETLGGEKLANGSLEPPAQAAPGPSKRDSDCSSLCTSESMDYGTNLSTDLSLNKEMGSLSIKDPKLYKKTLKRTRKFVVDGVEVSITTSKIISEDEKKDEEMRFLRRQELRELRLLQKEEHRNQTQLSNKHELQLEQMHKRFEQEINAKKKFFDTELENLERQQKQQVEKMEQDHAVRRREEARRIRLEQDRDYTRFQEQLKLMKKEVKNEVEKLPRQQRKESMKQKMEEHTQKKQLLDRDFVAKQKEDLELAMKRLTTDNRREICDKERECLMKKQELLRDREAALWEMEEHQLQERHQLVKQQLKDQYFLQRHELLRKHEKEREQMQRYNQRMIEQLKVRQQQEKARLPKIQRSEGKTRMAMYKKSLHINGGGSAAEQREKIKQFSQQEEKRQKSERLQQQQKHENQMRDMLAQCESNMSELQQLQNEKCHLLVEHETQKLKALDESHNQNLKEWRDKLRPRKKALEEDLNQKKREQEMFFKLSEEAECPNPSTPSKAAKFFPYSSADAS

| Compound | Kd |
| --- | --- |
| CN1N=C(N)c2cn([C@@H]3O[C@H](COP(=O)(O)O)[C@@H](O)[C@H]3O)c3ncnc1c23 [TRICIRIBINE PHOSPHATE] | > 30 µM (inactive) |
| CC(C)Nc1cc(-c2c[nH]c(C(=O)N[C@H](CO)c3cccc(Cl)c3)c2)c(Cl)cn1 [ULIXERTINIB] | > 30 µM (inactive) |
| CCCS(=O)(=O)Nc1ccc(F)c(C(=O)c2c[nH]c3ncc(-c4ccc(Cl)cc4)cc23)c1F [VEMURAFENIB] | > 30 µM (inactive) |

target: Cyclin-dependent kinase 5 (Homo sapiens, UniProt Q00535)
Sequence (Q00535 whole entry): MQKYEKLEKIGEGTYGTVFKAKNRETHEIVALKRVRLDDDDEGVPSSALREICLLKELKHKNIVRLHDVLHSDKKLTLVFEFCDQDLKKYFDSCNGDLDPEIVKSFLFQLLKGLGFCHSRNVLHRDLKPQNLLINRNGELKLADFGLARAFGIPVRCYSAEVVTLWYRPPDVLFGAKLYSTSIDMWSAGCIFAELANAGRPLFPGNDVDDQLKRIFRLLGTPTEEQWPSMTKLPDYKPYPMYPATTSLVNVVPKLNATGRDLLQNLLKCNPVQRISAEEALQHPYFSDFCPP

| Compound | Kd |
| --- | --- |
| CN1N=C(N)c2cn([C@@H]3O[C@H](COP(=O)(O)O)[C@@H](O)[C@H]3O)c3ncnc1c23 [TRICIRIBINE PHOSPHATE] | > 30 µM (inactive) |
| CC(C)Nc1cc(-c2c[nH]c(C(=O)N[C@H](CO)c3cccc(Cl)c3)c2)c(Cl)cn1 [ULIXERTINIB] | > 30 µM (inactive) |
| CCCS(=O)(=O)Nc1ccc(F)c(C(=O)c2c[nH]c3ncc(-c4ccc(Cl)cc4)cc23)c1F [VEMURAFENIB] | > 30 µM (inactive) |

target: T3, Membrane-associated tyrosine- and threonine-specific cdc2-inhibitory kinase (Homo sapiens, UniProt Q99640)
T3 sequence (Q99640 whole entry): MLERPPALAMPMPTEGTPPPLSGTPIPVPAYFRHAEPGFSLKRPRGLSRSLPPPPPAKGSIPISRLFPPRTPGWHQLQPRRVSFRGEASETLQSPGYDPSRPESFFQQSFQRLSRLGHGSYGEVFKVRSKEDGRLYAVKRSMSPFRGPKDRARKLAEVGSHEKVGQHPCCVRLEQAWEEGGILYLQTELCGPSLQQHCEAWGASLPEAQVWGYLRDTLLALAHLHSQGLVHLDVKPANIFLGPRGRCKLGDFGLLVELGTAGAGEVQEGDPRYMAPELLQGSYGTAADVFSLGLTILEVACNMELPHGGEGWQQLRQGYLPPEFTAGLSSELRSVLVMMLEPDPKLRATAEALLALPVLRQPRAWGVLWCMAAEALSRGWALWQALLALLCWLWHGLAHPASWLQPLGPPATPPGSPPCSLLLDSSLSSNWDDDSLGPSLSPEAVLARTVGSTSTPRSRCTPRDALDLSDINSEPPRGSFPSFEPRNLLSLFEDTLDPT

| Compound | Kd |
| --- | --- |
| CN1N=C(N)c2cn([C@@H]3O[C@H](COP(=O)(O)O)[C@@H](O)[C@H]3O)c3ncnc1c23 [TRICIRIBINE PHOSPHATE] | > 30 µM (inactive) |
| CC(C)Nc1cc(-c2c[nH]c(C(=O)N[C@H](CO)c3cccc(Cl)c3)c2)c(Cl)cn1 [ULIXERTINIB] | > 30 µM (inactive) |
| CCCS(=O)(=O)Nc1ccc(F)c(C(=O)c2c[nH]c3ncc(-c4ccc(Cl)cc4)cc23)c1F [VEMURAFENIB] | > 30 µM (inactive) |

target: DNA topoisomerase 2-alpha (Homo sapiens, UniProt P11388)

| Compound | Kd |
| --- | --- |
| CN1N=C(N)c2cn([C@@H]3O[C@H](COP(=O)(O)O)[C@@H](O)[C@H]3O)c3ncnc1c23 [TRICIRIBINE PHOSPHATE] | > 30 µM (inactive) |
| CC(C)Nc1cc(-c2c[nH]c(C(=O)N[C@H](CO)c3cccc(Cl)c3)c2)c(Cl)cn1 [ULIXERTINIB] | > 30 µM (inactive) |
| CCCS(=O)(=O)Nc1ccc(F)c(C(=O)c2c[nH]c3ncc(-c4ccc(Cl)cc4)cc23)c1F [VEMURAFENIB] | > 30 µM (inactive) |

target: T4, Very long-chain specific acyl-CoA dehydrogenase, mitochondrial (Homo sapiens, UniProt P49748)
T4 sequence (P49748 whole entry): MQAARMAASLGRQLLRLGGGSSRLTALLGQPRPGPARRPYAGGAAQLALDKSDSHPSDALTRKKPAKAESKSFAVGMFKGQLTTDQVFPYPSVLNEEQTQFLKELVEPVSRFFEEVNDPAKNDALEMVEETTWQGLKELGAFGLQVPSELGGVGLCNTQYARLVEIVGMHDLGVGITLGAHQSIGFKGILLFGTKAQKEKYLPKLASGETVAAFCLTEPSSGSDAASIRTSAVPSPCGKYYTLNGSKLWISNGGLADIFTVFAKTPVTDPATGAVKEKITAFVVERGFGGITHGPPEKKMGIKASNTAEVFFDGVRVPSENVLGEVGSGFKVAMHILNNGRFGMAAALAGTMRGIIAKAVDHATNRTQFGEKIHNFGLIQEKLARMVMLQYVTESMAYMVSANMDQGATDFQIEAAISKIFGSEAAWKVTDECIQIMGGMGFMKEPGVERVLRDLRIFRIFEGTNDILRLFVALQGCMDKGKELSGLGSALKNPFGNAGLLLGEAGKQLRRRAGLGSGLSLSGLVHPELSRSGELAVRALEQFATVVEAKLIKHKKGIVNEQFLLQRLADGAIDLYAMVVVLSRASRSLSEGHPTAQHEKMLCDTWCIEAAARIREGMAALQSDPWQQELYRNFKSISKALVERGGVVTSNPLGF

| Compound | Kd |
| --- | --- |
| CN1N=C(N)c2cn([C@@H]3O[C@H](COP(=O)(O)O)[C@@H](O)[C@H]3O)c3ncnc1c23 [TRICIRIBINE PHOSPHATE] | > 30 µM (inactive) |
| CC(C)Nc1cc(-c2c[nH]c(C(=O)N[C@H](CO)c3cccc(Cl)c3)c2)c(Cl)cn1 [ULIXERTINIB] | > 30 µM (inactive) |
| CCCS(=O)(=O)Nc1ccc(F)c(C(=O)c2c[nH]c3ncc(-c4ccc(Cl)cc4)cc23)c1F [VEMURAFENIB] | > 30 µM (inactive) |
